Assay results taken from ChEMBL document CHEMBL5108048, “Potent GCN2 Inhibitor Capable of Reversing MDSC-Driven T Cell Suppression Demonstrates In Vivo Efficacy as a Single Agent and in Combination with Anti-Angiogenesis Therapy” (J Med Chem, 2022).
Activity calls are given as the source filed them. No cut-off for these calls is given here.

Experiments:
[1] = Oral bioavailability in Balb/c mouse at 2 mg/kg; type: ADME, organism-based; conditions: in vivo
[2] = target: T1, Mitogen-activated protein kinase 10 (Homo sapiens, UniProt P53779); experiment: Inhibition of JNK3 (unknown origin) assessed as fold change
[3] = target: CDK6/cyclin D3 (Homo sapiens) (UniProt P30281+Q00534); experiment: Inhibition of CDK6/Cyclin-D3 (unknown origin) assessed as fold change; type: protein-complex assay
[4] = target: T2, Cyclin-dependent kinase-like 3 (Homo sapiens, UniProt Q8IVW4); experiment: Inhibition of CDKL3 (unknown origin) assessed as fold change
[5] = target: T3, Transcription initiation factor TFIID subunit 1-like (Homo sapiens, UniProt Q8IZX4); experiment: Inhibition of TAF1L (unknown origin) assessed as fold change
[6] = Antitumor activity against mouse LL2 cells xenografted in mouse assessed as tumor growth inhibition at 50 mg/kg,po bid measured after 26 days; type: functional; conditions: Lewis lung carcinoma, 624 h, time 26 day, read-out: TGI
[7] = AUC (0-infinity) in Balb/c mouse at 2 mg/kg,po; type: ADME, organism-based; design: time infinity, dose 2 mg/kg, route po; conditions: in vivo
[8] = target: T4, Eukaryotic translation initiation factor 2-alpha kinase 1 (Homo sapiens, UniProt Q9BQI3); experiment: Inhibition of HRI (unknown origin)
[9] = […] in Sprague-Dawley rat […] assessed as half life at 0.5 mg/kg,iv; type: ADME, organism-based
[10] = target: T5, Cyclin-dependent kinase-like 4 (Homo sapiens, UniProt Q5MAI5); experiment: Inhibition of CDKL4 (unknown origin)
[11] = Antitumor activity against mouse LL2 cells xenografted in mouse assessed as tumor growth inhibition at 50 mg/kg,po bid in presence of anti-VEGFR antibody measured after 26 days; type: functional; conditions: Lewis lung carcinoma, 624 h, time 26 day, read-out: TGI
[12] = target: T1, Mitogen-activated protein kinase 10; experiment: Inhibition of JNK3 (unknown origin)
Spleen = experiment: In vivo inhibition of GCN2 in Balb/c mouse injected with […] Renca cells assessed as reduction in spleen GCN2 expression level at 15 mg/kg,po bid after 17 days; type: functional; conditions: 408 h, time 17 day
[13] = target: T2, Cyclin-dependent kinase-like 3; experiment: Inhibition of CDKL3 (unknown origin)
[14] = Oral bioavailability in Sprague-Dawley rat at 2 mg/kg; type: ADME, organism-based; conditions: in vivo
[15] = target: T5, Cyclin-dependent kinase-like 4; experiment: Inhibition of CDKL4 (unknown origin) assessed as fold change
[16] = target: T6, Eukaryotic translation initiation factor 2-alpha kinase 3 (Homo sapiens, UniProt Q9NZJ5); experiment: Inhibition of PERK (unknown origin)
T6 sequence (Q9NZJ5 whole entry): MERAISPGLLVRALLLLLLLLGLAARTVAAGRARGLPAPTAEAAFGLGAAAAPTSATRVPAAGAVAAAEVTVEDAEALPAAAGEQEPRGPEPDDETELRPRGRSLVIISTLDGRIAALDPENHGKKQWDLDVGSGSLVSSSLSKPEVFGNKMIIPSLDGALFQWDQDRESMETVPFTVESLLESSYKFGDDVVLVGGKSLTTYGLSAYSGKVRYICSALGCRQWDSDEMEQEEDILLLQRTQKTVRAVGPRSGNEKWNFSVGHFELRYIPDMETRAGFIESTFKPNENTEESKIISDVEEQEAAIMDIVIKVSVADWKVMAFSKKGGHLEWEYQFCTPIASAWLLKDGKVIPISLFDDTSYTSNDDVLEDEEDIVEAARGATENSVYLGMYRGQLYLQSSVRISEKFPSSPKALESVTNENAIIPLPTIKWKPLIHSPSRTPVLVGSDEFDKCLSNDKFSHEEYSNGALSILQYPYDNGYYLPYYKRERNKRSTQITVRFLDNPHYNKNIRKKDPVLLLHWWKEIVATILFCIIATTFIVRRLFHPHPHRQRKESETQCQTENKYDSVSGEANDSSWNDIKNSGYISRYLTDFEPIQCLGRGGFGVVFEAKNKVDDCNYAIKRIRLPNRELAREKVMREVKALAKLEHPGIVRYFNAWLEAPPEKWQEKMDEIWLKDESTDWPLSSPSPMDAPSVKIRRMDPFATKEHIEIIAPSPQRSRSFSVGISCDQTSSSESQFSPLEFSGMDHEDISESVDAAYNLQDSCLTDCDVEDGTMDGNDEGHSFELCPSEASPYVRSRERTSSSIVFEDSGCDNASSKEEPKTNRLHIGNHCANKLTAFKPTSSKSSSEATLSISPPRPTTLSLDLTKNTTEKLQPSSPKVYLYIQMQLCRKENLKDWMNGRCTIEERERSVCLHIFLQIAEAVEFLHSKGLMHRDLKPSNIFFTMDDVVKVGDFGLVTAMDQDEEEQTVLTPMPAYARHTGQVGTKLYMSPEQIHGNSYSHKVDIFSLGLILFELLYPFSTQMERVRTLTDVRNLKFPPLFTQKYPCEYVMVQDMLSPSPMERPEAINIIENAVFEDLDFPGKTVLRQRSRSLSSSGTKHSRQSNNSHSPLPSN

Mus musculus [17] = experiment: In vivo inhibition of GCN2 in Balb/c mouse injected with […] Renca cells assessed as reduction in ATF4 expression level at 15 mg/kg,po bid after 17 days by western blot analysis; type: functional; conditions: 408 h, time 17 day
[18] = target: T7, Cyclin-dependent kinase-like 2 (Homo sapiens, UniProt Q92772); experiment: Inhibition of CDKL2 (unknown origin)
T7 sequence (Q92772 whole entry): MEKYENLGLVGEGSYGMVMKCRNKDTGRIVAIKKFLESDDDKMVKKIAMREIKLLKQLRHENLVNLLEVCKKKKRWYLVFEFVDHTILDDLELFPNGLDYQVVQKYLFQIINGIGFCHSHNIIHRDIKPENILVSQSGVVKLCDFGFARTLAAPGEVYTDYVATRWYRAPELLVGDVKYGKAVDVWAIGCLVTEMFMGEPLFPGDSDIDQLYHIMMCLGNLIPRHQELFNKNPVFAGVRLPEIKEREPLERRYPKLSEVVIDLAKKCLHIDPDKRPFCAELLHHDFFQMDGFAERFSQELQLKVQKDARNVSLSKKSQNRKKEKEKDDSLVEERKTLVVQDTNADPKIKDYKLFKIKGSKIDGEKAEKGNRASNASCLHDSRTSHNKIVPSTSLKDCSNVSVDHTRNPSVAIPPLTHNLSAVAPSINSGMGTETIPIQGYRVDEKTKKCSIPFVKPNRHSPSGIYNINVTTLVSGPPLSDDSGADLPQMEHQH

eIF-2-alpha kinase GCN2 [19] = target: T8, eIF-2-alpha kinase GCN2 (Homo sapiens, UniProt Q9P2K8); experiment: Inhibition of GCN2 in human SK-OV-3 cells assessed as reduction in phosphorylation of eIF2alpha by cellular assay; type: cell-based
[20] = Half life in Balb/c mouse at 0.5 mg/kg,iv; type: ADME, organism-based; conditions: in vivo
CDK6/cyclin D3 = CDK6/cyclin D3 (Homo sapiens, UniProt Q00534); experiment: Inhibition of CDK6/Cyclin-D3 (unknown origin); type: protein-complex assay
eIF-2-alpha kinase GCN2 [21] = target: T8, eIF-2-alpha kinase GCN2; experiment: Inhibition of GCN2 in human SK-OV-3 cells assessed as reduction in phosphorylation of eIF2alpha in presence of human serum by cellular assay; type: cell-based
Mus musculus [22] = experiment: In vivo inhibition of GCN2 in Balb/c mouse injected with […] Renca cells assessed as reduction in tumor GCN2 expression level at 15 mg/kg,po bid after 17 days; type: functional; conditions: Neoplasm, 408 h, time 17 day
[23] = target: T9, Cyclin-dependent kinase-like 2 (Homo sapiens) (UniProt Q92772); experiment: Inhibition of CDKL2 (unknown origin) assessed as fold change
T9 sequence (whole entry): T7 sequence (Q92772 whole entry)

[24] = target: T4, Eukaryotic translation initiation factor 2-alpha kinase 1; experiment: Inhibition of HRI (unknown origin) assessed as fold change
[25] = AUC (0-infinity) in Sprague-Dawley rat at 2 mg/kg,po; type: ADME, organism-based; design: time infinity, dose 2 mg/kg, route po; conditions: in vivo
[26] = Volume of distribution at steady state in Balb/c mouse at 0.5 mg/kg,iv; type: ADME, organism-based; conditions: in vivo, read-out: Vdss
eIF-2-alpha kinase GCN2 [27] = target: T8, eIF-2-alpha kinase GCN2; experiment: Inhibition of GCN2 (unknown origin)
[28] = target: T3, Transcription initiation factor TFIID subunit 1-like; experiment: Inhibition of TAF1L (unknown origin)
[29] = Clearance in Balb/c mouse at 0.5 mg/kg,iv; type: ADME, organism-based; conditions: in vivo
Panc02 = experiment: Antitumor activity against […] Panc02 cells xenografted in mouse assessed as decrease in MDSC- induced suppression of CD8+ T cells at 600 nM incubated for 3 days; type: functional, cell-based; conditions: time 3.0 day
[30] = target: T10, Eukaryotic translation initiation factor 2-alpha kinase 3 (Homo sapiens) (UniProt Q9NZJ5); experiment: Inhibition of PERK (unknown origin) assessed as fold change
T10 sequence (whole entry): T6 sequence (Q9NZJ5 whole entry)

[31] = Plasma protein binding (unknown origin) assessed as unbound fraction; type: ADME, cell-free
[32] = target: T11, Interferon-induced, double-stranded RNA-activated protein kinase (Homo sapiens, UniProt P19525); experiment: Inhibition of PKR (unknown origin) assessed as fold change
[33] = target: T11, Interferon-induced, double-stranded RNA-activated protein kinase; experiment: Inhibition of PKR (unknown origin)

T8 sequence (Q9P2K8 whole entry): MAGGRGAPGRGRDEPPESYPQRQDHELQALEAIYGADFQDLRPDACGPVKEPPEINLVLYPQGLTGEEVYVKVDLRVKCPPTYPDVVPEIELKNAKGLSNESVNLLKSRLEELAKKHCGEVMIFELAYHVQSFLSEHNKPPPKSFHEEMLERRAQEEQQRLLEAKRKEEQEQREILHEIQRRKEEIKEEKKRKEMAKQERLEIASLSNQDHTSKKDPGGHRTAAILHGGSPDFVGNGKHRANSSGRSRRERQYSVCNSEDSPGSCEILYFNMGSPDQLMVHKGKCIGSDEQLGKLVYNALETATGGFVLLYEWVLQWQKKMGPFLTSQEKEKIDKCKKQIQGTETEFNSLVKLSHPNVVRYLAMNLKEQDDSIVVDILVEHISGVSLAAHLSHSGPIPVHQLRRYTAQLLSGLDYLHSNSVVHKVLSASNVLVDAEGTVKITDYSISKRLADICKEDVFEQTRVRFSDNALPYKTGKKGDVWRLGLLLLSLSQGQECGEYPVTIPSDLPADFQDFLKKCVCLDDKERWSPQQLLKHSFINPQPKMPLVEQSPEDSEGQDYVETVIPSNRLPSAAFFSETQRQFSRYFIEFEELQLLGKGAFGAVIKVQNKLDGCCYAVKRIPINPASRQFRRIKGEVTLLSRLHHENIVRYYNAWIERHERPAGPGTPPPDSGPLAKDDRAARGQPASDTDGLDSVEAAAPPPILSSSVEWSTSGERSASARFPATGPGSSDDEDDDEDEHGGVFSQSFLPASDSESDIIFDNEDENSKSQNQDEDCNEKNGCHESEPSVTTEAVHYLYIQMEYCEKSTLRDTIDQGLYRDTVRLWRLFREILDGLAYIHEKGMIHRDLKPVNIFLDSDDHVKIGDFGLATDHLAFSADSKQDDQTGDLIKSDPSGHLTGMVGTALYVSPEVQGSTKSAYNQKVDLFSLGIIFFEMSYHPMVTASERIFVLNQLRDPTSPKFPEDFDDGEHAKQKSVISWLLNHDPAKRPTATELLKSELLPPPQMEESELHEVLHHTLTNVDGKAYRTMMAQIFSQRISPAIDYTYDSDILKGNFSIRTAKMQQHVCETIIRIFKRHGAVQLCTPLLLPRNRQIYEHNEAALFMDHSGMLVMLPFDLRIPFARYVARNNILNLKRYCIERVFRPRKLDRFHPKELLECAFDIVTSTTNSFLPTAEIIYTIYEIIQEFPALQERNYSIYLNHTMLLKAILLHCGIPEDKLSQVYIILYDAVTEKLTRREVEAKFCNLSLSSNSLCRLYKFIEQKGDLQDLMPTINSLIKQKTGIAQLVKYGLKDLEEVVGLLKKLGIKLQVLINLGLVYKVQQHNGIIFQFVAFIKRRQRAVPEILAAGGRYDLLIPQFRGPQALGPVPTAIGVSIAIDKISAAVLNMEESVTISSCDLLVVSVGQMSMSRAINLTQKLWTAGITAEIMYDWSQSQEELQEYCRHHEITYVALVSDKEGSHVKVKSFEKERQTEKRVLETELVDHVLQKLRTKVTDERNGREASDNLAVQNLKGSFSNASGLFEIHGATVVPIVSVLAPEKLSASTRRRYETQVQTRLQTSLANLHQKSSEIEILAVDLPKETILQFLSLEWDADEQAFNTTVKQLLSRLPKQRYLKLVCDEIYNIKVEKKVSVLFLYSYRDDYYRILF
T4 sequence (Q9BQI3 whole entry): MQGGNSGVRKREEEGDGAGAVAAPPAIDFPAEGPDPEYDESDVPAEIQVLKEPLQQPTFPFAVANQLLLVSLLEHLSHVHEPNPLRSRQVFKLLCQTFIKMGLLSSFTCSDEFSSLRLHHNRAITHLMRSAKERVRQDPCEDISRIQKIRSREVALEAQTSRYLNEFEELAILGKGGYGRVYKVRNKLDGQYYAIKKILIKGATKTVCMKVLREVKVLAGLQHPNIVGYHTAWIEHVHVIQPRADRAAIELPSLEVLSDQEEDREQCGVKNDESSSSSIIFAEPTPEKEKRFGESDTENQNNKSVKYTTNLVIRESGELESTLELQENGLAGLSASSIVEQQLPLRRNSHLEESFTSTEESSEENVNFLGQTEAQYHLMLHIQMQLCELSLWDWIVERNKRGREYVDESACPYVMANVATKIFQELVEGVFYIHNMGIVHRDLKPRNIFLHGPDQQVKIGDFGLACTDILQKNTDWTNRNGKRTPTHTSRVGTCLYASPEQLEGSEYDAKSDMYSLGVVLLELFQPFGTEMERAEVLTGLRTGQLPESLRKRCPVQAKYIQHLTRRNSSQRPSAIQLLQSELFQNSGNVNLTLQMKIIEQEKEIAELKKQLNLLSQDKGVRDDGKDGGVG
T3 sequence (Q8IZX4 whole entry): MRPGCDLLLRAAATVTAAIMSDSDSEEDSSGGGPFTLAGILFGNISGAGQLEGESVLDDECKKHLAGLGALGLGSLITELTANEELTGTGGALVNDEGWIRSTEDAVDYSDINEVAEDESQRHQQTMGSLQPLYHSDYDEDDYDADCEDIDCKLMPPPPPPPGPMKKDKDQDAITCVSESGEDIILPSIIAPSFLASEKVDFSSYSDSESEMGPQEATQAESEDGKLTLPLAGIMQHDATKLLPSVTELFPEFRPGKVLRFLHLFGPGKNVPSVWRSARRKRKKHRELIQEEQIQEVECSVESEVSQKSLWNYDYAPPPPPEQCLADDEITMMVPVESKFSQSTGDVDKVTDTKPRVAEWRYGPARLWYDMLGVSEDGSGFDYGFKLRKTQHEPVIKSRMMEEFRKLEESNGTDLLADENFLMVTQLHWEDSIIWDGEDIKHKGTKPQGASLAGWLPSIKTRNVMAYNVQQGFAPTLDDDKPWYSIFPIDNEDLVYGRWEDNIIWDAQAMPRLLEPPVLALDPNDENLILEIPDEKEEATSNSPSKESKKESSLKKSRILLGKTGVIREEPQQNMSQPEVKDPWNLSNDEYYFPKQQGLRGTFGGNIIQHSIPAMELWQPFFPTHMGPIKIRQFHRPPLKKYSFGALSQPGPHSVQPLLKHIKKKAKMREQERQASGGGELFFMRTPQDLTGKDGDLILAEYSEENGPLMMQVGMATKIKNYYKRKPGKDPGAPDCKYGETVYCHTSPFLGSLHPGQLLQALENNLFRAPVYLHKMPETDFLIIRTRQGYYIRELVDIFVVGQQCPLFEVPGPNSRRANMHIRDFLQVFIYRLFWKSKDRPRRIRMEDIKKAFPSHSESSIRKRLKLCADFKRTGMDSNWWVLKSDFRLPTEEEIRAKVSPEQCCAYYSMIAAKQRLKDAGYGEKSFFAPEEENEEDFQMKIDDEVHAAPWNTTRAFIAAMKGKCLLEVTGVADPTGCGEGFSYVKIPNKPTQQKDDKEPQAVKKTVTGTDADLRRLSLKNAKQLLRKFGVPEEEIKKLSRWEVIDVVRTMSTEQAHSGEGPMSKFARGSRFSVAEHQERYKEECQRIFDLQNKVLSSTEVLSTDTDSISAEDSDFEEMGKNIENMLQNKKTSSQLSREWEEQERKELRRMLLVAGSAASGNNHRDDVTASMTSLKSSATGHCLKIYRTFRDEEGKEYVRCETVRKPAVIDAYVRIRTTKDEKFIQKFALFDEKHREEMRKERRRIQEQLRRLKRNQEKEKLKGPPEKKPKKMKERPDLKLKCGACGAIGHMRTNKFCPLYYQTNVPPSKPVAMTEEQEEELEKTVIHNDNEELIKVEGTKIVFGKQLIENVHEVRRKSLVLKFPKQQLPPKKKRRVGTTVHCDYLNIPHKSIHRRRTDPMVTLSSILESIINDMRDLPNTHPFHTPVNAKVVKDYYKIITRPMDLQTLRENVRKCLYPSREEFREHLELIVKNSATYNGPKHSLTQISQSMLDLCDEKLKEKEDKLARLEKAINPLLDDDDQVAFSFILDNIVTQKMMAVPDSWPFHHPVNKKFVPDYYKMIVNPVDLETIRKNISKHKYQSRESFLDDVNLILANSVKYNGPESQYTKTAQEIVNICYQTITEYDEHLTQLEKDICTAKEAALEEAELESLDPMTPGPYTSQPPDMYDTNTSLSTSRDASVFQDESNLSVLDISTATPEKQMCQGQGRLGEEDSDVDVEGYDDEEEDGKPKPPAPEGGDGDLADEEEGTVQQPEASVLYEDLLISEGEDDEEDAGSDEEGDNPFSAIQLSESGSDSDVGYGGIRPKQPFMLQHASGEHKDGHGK
T11 sequence (P19525 whole entry): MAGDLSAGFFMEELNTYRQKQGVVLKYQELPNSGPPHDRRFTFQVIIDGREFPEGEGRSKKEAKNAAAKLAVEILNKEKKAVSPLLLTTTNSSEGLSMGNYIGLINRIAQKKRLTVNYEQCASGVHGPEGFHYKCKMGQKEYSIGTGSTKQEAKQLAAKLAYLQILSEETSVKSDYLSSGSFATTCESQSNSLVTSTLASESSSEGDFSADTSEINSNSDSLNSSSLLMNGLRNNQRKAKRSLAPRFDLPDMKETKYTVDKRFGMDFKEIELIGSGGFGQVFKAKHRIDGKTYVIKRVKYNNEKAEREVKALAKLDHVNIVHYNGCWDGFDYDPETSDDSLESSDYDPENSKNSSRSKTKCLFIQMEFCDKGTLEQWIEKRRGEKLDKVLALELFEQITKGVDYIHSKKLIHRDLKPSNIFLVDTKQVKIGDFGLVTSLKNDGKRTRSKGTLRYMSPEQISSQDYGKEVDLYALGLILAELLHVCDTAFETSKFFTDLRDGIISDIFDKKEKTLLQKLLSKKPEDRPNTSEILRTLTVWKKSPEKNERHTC
T1 sequence (P53779 whole entry): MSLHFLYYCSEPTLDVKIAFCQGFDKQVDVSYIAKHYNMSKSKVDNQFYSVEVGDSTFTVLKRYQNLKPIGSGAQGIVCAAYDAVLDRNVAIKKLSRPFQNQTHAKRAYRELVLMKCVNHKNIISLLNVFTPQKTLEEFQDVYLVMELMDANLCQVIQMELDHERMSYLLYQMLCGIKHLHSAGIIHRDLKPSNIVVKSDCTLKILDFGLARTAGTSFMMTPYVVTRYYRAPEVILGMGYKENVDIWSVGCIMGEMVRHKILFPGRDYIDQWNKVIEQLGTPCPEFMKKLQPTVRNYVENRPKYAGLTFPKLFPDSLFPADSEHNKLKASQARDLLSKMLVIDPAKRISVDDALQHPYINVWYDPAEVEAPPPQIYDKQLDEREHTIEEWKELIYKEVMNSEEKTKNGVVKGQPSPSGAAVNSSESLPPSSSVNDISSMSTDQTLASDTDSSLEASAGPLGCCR

CNC(=O)[C@]1(C)CC[C@@H](Nc2ncc3c(Br)nn(-c4ccc(-c5nnc(C)s5)cc4)c3n2)C1
bioavailability [1]: 50%
fold change (FC) [2]: 20
fold change (FC) [3]: 38
fold change (FC) [4]: 28
fold change (FC) [5]: 25
inhibition in vivo at 50 mg/kg [6]: 56%
AUC(0-inf) [7]: 1680 ng·h/mL
IC50 [8]: > 1000 nM
half-life [9]: 0.867 h
IC50 [10]: 118 nM
inhibition in vivo at 50 mg/kg [11]: 79%
IC50 [12]: 101 nM
inhibition in vivo at 15 mg/kg (Spleen): 80%
IC50 [13]: 143 nM
bioavailability [14]: 80%
fold change (FC) [15]: 23
IC50 [16]: > 50000 nM
inhibition in vivo at 15 mg/kg (Mus musculus [17]): 65%
IC50 [18]: 165 nM
IC50 (eIF-2-alpha kinase GCN2 [19]): 16 nM
half-life [20]: 1.2 h
IC50 (CDK6/cyclin D3): 191 nM
IC50 (eIF-2-alpha kinase GCN2 [21]): 1310 nM
inhibition in vivo at 15 mg/kg (Mus musculus [22]): 84%
fold change (FC) [23]: 33
fold change (FC) [24]: > 200
AUC(0-inf) [25]: 4600 ng·h/mL
Vd [26]: 0.8 L/kg
IC50 (eIF-2-alpha kinase GCN2 [27]): 5 nM
IC50 [28]: 124 nM
clearance [29]: 10 mL/min/kg
Activity (Panc02): Active
fold change (FC) [30]: > 10000
Fu [31]: 1%
fold change (FC) [32]: > 10000
IC50 [33]: > 50000 nM
